The values that follow come from patent publication US12528792B2, “Sulfonamide compounds and the use thereof in the treatment of cancer” (TROBIO THERAPEUTICS PTY LTD, priority 2019, dated 2026).

The term pIC50 denotes −log10 of the IC50, conventionally taken in molar units.

pIC50: −log10 of the molar value.

Experiment [1] has as its system A2780 ovarian cancer cells. Briefly: In vitro growth inhibition assay, Alamar Blue, single agent IC50. The class given is cell-based. Particulars: Homo sapiens, 72 h drug exposure, Alamar Blue, 384-well (26*: 96-well plate format), read-out: Single-agent IC50. As to the method: In vitro growth inhibition assays were performed as technical triplicate in two independent experiments and cell viability was assessed by Alamar Blue assay readout. Briefly, cells in logarithmic phase growth were seeded in 384-well plates in a 50 μL/well assay volume. Cells were seeded at 1,200 cells/well using a Multidrop 384 (Thermo Scientific) and allowed to adhere at 37° C. with 5% CO2, in a humidified atmosphere (LiCONIC incubator). After 24 hours incubation, test compounds, positive control (20 μM Thonzonium bromide, 100% kill) and vehicle only (0.4% DMSO) were added into wells of each assay plate using a Tecan HP D300 Digital Dispenser in technical triplicate under minimum light. Following 72 hours drug exposure, metabolic activity was detected by addition of 10% (v/v) Alamar Blue reagent to each assay well using a Multidrop Cambi (Thermo Scientific) and determined by measurement of fluorescence intensity (excitation 555 nm, emission 585 nm) using an EnSpire (Perkin Elmer) plate reader. Readings were performed at 0 hour (background) and after 6 hours alamar blue incubation at 37° C.
Each drug was tested as a 10-point concentration series with two-fold serial dilutions of each drug. The concentration series for compounds 6 and 8 was 100, 50, 25, 12.5, 6.25, 3.125, 1.563, 0.781, 0.391 and 0.195 μM and for compounds 24, 43 and 48 was 50, 25, 12.5, 6.25, 3.125, 1.563, 0.781, 0.391, 0.195 and 0.098 μM for the two independent experiments. The concentration series for vinorelbine and paclitaxel was 100, 50, 25, 12.5, 6.25, 3.125, 1.5625, 0.781, 0.391 and 0.195 nM. Thonzonium bromide (20 μM) and 0.4% DMSO were used as positive and vehicle controls, respectively. The IC50 value was calculated by derivation of the best-fit line using a sigmoidal dose response model (Activity Base Software Suite, IDES).
Activity Base software suite (IDES, version 8.3.0.175) was used for data analysis. Cell survival is expressed as a percentage of viable cells. IC50 concentrations were calculated by derivation of the best-fit line using a sigmoidal dose response model with technical triplicate data points.
In general terms: Alamar Blue is a resazurin reagent that responds to reducing activity.

The test system of experiment [2] is SK-N-SH neuroblastoma cells. As to the kind of experiment: Cytotoxicity assay, MTS viability. The experiment is classed as cell-based. Particulars: Homo sapiens, 72 hours. An outline of the steps:
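SK-N-SH cells, 2×10^3/well in DMEM with 10% FBS at 37 °C, treated with 1:2 compound series from 100 μM; MTS viability read after 72 hours. Viability normalised to vehicle control; EC50 taken from dose-response curves.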

Experiment [3] deals with F-actin/Tpm3.1 (Homo sapiens, UniProt P06753). Briefly: Actin depolymerisation assay. The class given is biochemical. Particulars: 50 μmol/L test compound, FIG. 1. As to the method:
A 12 μmol/L solution of labelled F-actin was prepared by polymerising the monomeric actin (35% pyrene labelled Rabbit Muscle (Cytoskeleton Inc)) into filaments in the presence of buffer T (100 mmol/L NaCl; 10 mmol/L Tris HCl PH 7.5; 2 mmol/L MgCl2; 1 mmol/L EGTA; 0.5 mmol/L DTT) with added ATP (0.2 mmol/L), for 1 hour in the dark at room temperature. Tpm3.1 (10 μmol/L) was reduced in buffer T containing 1 mmol/L DTT at 70° C. for 6 minutes and centrifuged at 60,000 rpm for 30 minutes to remove nonreduced dimers. […] Duplicate samples were diluted 12-fold using an F-actin polymerisation buffer (100 mmol/L NaCl; 10 mmol/L Tris HCl PH 7; 2 mmol/L MgCl2; 1 mmol/L EGTA; 0.2 mmol/L ATP; 1 mmol/L DTT) and the depolymerisation rates of F-actin alone, F-actin/Tpm3.1, and the F-actin/Tpm3.1/test compound filament complex were measured using a Costar 3915 fluorescence plate reader (407 nm) at 36-second intervals for 160 minutes at room temperature. Data were normalized to the initial fluorescence value and polymerisation curves of duplicate samples were fitted to a two-phase exponential decay model using OriginPro 9.1 (OriginLab) (FIG. 1A). Percent polymerisation was determined at t160 as a function of to (100%) (FIG. 1B, p<0.0001).

In the case of `O=C(Nc1ccc(C(F)(F)F)cc1)c1ccn(S(=O)(=O)c2ccc3[nH]ccc3c2)c1` [Compound 26, 1-((1H-indol-5-yl)sulfonyl)-N-(4-(trifluoromethyl)phenyl)-1H-pyrrole-3-carboxamide], the pIC50 is 4.90 in experiment [1] and 5.10 in experiment [2]. For the same molecule, the “Inhibition of Tpm3.1 protection of actin filaments from depolymerisation” value in experiment [3] is recorded as “inhibit the ability of Tpm3.1 to protect actin filaments from depolymerisation”.
